This note sets out measurements from ChEMBL document CHEMBL1154389, “Discovery of pyrimidine benzimidazoles as Src-family selective Lck inhibitors. Part II” (Bioorg Med Chem Lett, 2009).

Tyrosine-protein kinase HCK, sequence (P08631 whole entry): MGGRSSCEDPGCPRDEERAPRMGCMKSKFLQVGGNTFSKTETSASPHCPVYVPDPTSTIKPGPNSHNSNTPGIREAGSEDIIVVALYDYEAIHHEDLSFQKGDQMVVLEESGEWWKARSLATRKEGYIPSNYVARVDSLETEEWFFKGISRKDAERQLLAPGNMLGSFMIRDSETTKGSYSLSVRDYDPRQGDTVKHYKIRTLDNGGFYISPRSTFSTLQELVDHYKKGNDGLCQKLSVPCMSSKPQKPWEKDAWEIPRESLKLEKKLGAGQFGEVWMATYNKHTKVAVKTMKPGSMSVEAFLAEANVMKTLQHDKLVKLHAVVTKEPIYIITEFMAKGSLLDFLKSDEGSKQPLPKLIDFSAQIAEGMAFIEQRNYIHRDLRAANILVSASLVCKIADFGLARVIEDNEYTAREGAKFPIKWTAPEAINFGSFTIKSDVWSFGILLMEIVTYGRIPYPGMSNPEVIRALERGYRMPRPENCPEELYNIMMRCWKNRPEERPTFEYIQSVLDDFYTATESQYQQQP
Tyrosine-protein kinase Lck, sequence (P06239 whole entry): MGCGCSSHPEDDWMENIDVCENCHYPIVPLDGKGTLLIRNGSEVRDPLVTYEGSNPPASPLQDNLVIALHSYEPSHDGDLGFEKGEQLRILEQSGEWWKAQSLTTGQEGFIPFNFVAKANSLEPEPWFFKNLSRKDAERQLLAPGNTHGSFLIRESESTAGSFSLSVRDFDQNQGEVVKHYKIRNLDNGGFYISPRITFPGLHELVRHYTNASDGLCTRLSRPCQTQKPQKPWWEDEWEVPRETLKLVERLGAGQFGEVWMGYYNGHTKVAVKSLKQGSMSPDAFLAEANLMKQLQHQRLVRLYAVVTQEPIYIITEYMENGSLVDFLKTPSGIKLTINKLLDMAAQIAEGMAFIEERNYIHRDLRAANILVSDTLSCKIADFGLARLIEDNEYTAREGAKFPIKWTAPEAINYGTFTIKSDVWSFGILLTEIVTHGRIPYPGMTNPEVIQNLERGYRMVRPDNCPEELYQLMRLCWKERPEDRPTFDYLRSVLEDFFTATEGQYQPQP

In the first experiment the target is Proto-oncogene tyrosine-protein kinase Src (Homo sapiens, UniProt P12931). In words: Inhibition of SRC.
Proto-oncogene tyrosine-protein kinase Src, sequence (P12931 2-536 limits assumed): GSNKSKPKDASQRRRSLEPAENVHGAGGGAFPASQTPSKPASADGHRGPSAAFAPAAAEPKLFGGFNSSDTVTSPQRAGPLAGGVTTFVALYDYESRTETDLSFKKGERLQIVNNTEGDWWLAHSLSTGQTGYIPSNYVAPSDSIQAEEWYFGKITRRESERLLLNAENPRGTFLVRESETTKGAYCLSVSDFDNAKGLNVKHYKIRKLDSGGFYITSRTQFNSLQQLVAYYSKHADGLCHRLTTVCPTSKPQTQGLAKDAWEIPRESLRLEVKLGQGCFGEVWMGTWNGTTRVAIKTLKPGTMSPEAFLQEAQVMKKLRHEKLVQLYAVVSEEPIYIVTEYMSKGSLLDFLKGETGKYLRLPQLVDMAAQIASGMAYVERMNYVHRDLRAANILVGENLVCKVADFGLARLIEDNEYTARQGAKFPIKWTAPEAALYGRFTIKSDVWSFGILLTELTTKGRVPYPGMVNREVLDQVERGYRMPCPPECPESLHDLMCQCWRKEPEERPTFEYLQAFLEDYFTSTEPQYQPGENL
A word on the IC50: it is the concentration that gives 50% inhibition. Low readings indicate greater potency, high ones weaker potency. The compound `Cc1ccc(NC(=O)c2cc(C(C)(C)C)nn2C)cc1Nc1nc2ccccc2n1-c1cc(N)ncn1` came in with an IC50 of 7190 nM.
Same read-out and setting: then `Cc1ccc(NC(=O)c2cccc(C(F)(F)F)c2)cc1Nc1nc2ccccc2n1-c1cc(Cl)ncn1`, with 16500 nM.

A further experiment addresses Tyrosine-protein kinase Lck (Homo sapiens, UniProt P06239). In words: Inhibition of LCK.
In turn, `Cc1cn(-c2cc(NC(=O)c3ccc(C)c(Nc4nc5ccccc5n4-c4cc(N)ncn4)c3)cc(C(F)(F)F)c2)cn1` registered an IC50 of 238 nM.
Compound `Cc1cccc(NC(=O)c2ccc(C)c(Nc3nc4ccccc4n3-c3cc(NCCCCN(C)C)ncn3)c2)c1` gave an IC50 of 22 nM.
The same measure, in the same setting: then `CCN(CC)CCCCNc1cc(-n2c(Nc3cc(C(=O)Nc4cccc(C)c4)ccc3C)nc3ccccc32)ncn1`, with 20 nM; and `Cc1cccc(NC(=O)c2ccc(C)c(Nc3nc4ccccc4n3-c3cc(NCCN4CCN(C)CC4)ncn3)c2)c1`, with 38 nM.
Still for that read-out and setting: then `Cc1cccc(NC(=O)c2ccc(C)c(Nc3nc4ccccc4n3-c3cc(NCCCN4CCN(C)CC4)ncn3)c2)c1`, with 19 nM; and `Cc1ccc(C(=O)Nc2cccc(C(F)(F)F)c2)cc1Nc1nc2ccccc2n1-c1cc(NCCC#N)ncn1`, with 1370 nM; and `Cc1ccc(C(=O)Nc2cccc(C(F)(F)F)c2)cc1Nc1nc2ccccc2n1-c1ncnc(NCCCN2CCN(C)CC2)n1`, with 12 nM.
On the same count and under the same terms, then `Cc1ccc(NC(=O)c2cccc(C(F)(F)F)c2)cc1Nc1nc2ccccc2n1-c1cc(NCCCN)ncn1`, with 23 nM; and `Cc1ccc(NC(=O)c2cccc(C(F)(F)F)c2)cc1Nc1nc2ccccc2n1-c1cc(NCCCCN)ncn1`, with 13 nM; and `Cc1ccc(C(=O)Nc2ccccc2)cc1Nc1nc2ccccc2n1-c1cc(N)ncn1`, with 1080 nM.
Compound `Cc1cc(NC(=O)c2ccc(C)c(Nc3nc4ccccc4n3-c3cc(N)ncn3)c2)ccn1` showed an IC50 of 177 nM.
Consider `Cc1ccc(C(=O)Nc2cccc(C(N)=O)c2)cc1Nc1nc2ccccc2n1-c1cc(N)ncn1`, for which the IC50 was greater than 2500 nM.
On the same count and under the same terms, then `COc1cccc(NC(=O)c2ccc(C)c(Nc3nc4ccccc4n3-c3cc(N)ncn3)c2)c1`, with 90 nM; and `Cc1ccc(C(=O)Nc2cccc3cnccc23)cc1Nc1nc2ccccc2n1-c1cc(N)ncn1`, with 616 nM.
Still for that read-out and setting: in the case of `Cc1ccc(NC(=O)c2ccncc2Cl)cc1Nc1nc2ccccc2n1-c1cc(N)ncn1` it was 715 nM.
For the compound `Cc1cccc(NC(=O)c2ccc(C)c(Nc3nc4ccccc4n3-c3cc(N)ncn3)c2)c1`, the IC50 came out at 52 nM.
Compound `Cc1ccc(C(=O)Nc2cccc(C(C)C)c2)cc1Nc1nc2ccccc2n1-c1cc(N)ncn1` came in with an IC50 of 30 nM.
The same measure, in the same setting: then `Cc1ccc(C(=O)Nc2cccc(C(C)(C)C)c2)cc1Nc1nc2ccccc2n1-c1cc(N)ncn1`, with 22 nM.
The same measure, in the same setting: in the case of `Cc1ccc(C(=O)Nc2cccc(C(F)(F)F)c2)cc1Nc1nc2ccccc2n1-c1cc(N)ncn1` it was 59 nM; in that of `Cc1ccc(NC(=O)c2cccc(C(F)(F)F)c2)cc1Nc1nc2ccccc2n1-c1cc(NCCN)ncn1`, 230 nM; in that of `Cc1ccc(C(=O)Nc2cccc(Cl)c2)cc1Nc1nc2ccccc2n1-c1cc(N)ncn1`, 63 nM.
Still for that read-out and setting: in the case of `Cc1ccc(C(=O)Nc2cccc(OC(F)F)c2)cc1Nc1nc2ccccc2n1-c1cc(N)ncn1` it was 17 nM.
In turn, `Cc1ccc(C(=O)Nc2cccc(Br)c2)cc1Nc1nc2ccccc2n1-c1cc(N)ncn1` showed an IC50 of 43 nM.
On the same count and under the same terms, in the case of `Cc1ccc(NC(=O)c2cc(C(C)(C)C)nn2C)cc1Nc1nc2ccccc2n1-c1cc(N)ncn1` it was 316 nM; in that of `Cc1ccc(NC(=O)c2cccc(C(F)(F)F)c2)cc1Nc1nc2ccccc2n1-c1cc(Cl)ncn1`, 1160 nM.

The next experiment concerns the target Tyrosine-protein kinase HCK (Homo sapiens, UniProt P08631). In words: Inhibition of HCK.
`Cc1cn(-c2cc(NC(=O)c3ccc(C)c(Nc4nc5ccccc5n4-c4cc(N)ncn4)c3)cc(C(F)(F)F)c2)cn1`: it took 904 nM to reach half-maximal inhibition (IC50).
On the same count and under the same terms, then `Cc1cccc(NC(=O)c2ccc(C)c(Nc3nc4ccccc4n3-c3cc(NCCCCN(C)C)ncn3)c2)c1`, with greater than 2500 nM; and `CCN(CC)CCCCNc1cc(-n2c(Nc3cc(C(=O)Nc4cccc(C)c4)ccc3C)nc3ccccc32)ncn1`, with 1810 nM; and `Cc1cccc(NC(=O)c2ccc(C)c(Nc3nc4ccccc4n3-c3cc(NCCN4CCN(C)CC4)ncn3)c2)c1`, with greater than 2500 nM.
The same measure, in the same setting: in the case of `Cc1cccc(NC(=O)c2ccc(C)c(Nc3nc4ccccc4n3-c3cc(NCCCN4CCN(C)CC4)ncn3)c2)c1` it was 1870 nM.
The same measure, in the same setting: then `Cc1ccc(C(=O)Nc2cccc(C(F)(F)F)c2)cc1Nc1nc2ccccc2n1-c1cc(NCCC#N)ncn1`, with greater than 2500 nM; and `Cc1ccc(C(=O)Nc2cccc(C(F)(F)F)c2)cc1Nc1nc2ccccc2n1-c1ncnc(NCCCN2CCN(C)CC2)n1`, with 54 nM.
Compound `Cc1ccc(NC(=O)c2cccc(C(F)(F)F)c2)cc1Nc1nc2ccccc2n1-c1cc(NCCCN)ncn1` had an IC50 of 1960 nM.
For the compound `Cc1ccc(NC(=O)c2cccc(C(F)(F)F)c2)cc1Nc1nc2ccccc2n1-c1cc(NCCCCN)ncn1`, the midpoint of inhibition, the IC50, lay at 345 nM.
Still for that read-out and setting: then `Cc1ccc(C(=O)Nc2ccccc2)cc1Nc1nc2ccccc2n1-c1cc(N)ncn1`, with greater than 2500 nM.
The same measure, in the same setting: then `Cc1cc(NC(=O)c2ccc(C)c(Nc3nc4ccccc4n3-c3cc(N)ncn3)c2)ccn1`, with greater than 2500 nM.
Same read-out and setting: then `Cc1ccc(NC(=O)c2ccncc2C(C)(C)C)cc1Nc1nc2ccccc2n1-c1cc(N)ncn1`, with 46 nM; and `Cc1ccc(C(=O)Nc2cccc(C(N)=O)c2)cc1Nc1nc2ccccc2n1-c1cc(N)ncn1`, with greater than 2500 nM.
As to `COc1cccc(NC(=O)c2ccc(C)c(Nc3nc4ccccc4n3-c3cc(N)ncn3)c2)c1`, the half-maximal inhibitory concentration (IC50) is greater than 2500 nM.
Consider `Cc1ccc(C(=O)Nc2cccc3cnccc23)cc1Nc1nc2ccccc2n1-c1cc(N)ncn1`, for which the IC50 was greater than 2500 nM.
Same read-out and setting: then `Cc1ccc(NC(=O)c2ccncc2Cl)cc1Nc1nc2ccccc2n1-c1cc(N)ncn1`, with greater than 2500 nM; and `Cc1cccc(NC(=O)c2ccc(C)c(Nc3nc4ccccc4n3-c3cc(N)ncn3)c2)c1`, with greater than 2500 nM; and `Cc1ccc(C(=O)Nc2cccc(C(C)C)c2)cc1Nc1nc2ccccc2n1-c1cc(N)ncn1`, with 151 nM.
In turn, `Cc1ccc(C(=O)Nc2cccc(C(C)(C)C)c2)cc1Nc1nc2ccccc2n1-c1cc(N)ncn1` returned a 50% inhibitory concentration (IC50) of 139 nM.
On to `Cc1ccc(C(=O)Nc2cccc(C(F)(F)F)c2)cc1Nc1nc2ccccc2n1-c1cc(N)ncn1`, for which the IC50 was greater than 2500 nM.
Regarding `Cc1ccc(NC(=O)c2cccc(C(F)(F)F)c2)cc1Nc1nc2ccccc2n1-c1cc(NCCN)ncn1`, the IC50 was greater than 2500 nM.
The same measure, in the same setting: then `Cc1ccc(C(=O)Nc2cccc(Cl)c2)cc1Nc1nc2ccccc2n1-c1cc(N)ncn1`, with greater than 2500 nM; and `Cc1ccc(C(=O)Nc2cccc(OC(F)F)c2)cc1Nc1nc2ccccc2n1-c1cc(N)ncn1`, with greater than 2500 nM.
The same measure, in the same setting: in the case of `Cc1ccc(C(=O)Nc2cccc(Br)c2)cc1Nc1nc2ccccc2n1-c1cc(N)ncn1` it was greater than 2500 nM; in that of `Cc1ccc(NC(=O)c2cc(C(C)(C)C)nn2C)cc1Nc1nc2ccccc2n1-c1cc(N)ncn1`, 844 nM.
Turning to `Cc1ccc(NC(=O)c2cccc(C(F)(F)F)c2)cc1Nc1nc2ccccc2n1-c1cc(Cl)ncn1`, 3830 nM corresponded to half-maximal inhibition (IC50).
